According to PubChem BioAssay (NCI):
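Following 48 hours of exposure in 96-well plates, responses at five concentrations were used to interpolate endpoints linearly. TGI: concentration producing complete growth inhibition.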

What was measured:
Assay in all cases: NCI-60 cell line screen, 48 h
786-0 renal = test system: 786-0 renal
A498 renal = test system: A498 renal
A549 NSCLC = test system: A549 NSCLC
ACHN renal = test system: ACHN renal
BT-549 breast = test system: BT-549 breast
CAKI-1 renal = test system: CAKI-1 renal
CCRF-CEM leukemia = test system: CCRF-CEM leukemia
COLO 205 colon = test system: COLO 205 colon
DU-145 prostate = test system: DU-145 prostate
EKVX NSCLC = test system: EKVX NSCLC
HCC-2998 colon = test system: HCC-2998 colon
HCT-116 colon = test system: HCT-116 colon
HCT-15 colon = test system: HCT-15 colon
HL-60(TB) leukemia = test system: HL-60(TB) leukemia
HOP-62 NSCLC = test system: HOP-62 NSCLC
HOP-92 NSCLC = test system: HOP-92 NSCLC
HS 578T breast = test system: HS 578T breast
HT29 colon = test system: HT29 colon
IGROV1 ovarian = test system: IGROV1 ovarian
K-562 leukemia = test system: K-562 leukemia
KM12 colon = test system: KM12 colon
LOX IMVI melanoma = test system: LOX IMVI melanoma
M14 melanoma = test system: M14 melanoma
MALME-3M melanoma = test system: MALME-3M melanoma
MCF7 breast = test system: MCF7 breast
MDA-MB-231 breast = test system: MDA-MB-231 breast
MDA-MB-435 = test system: MDA-MB-435
MDA-N = test system: MDA-N
MOLT-4 leukemia = test system: MOLT-4 leukemia
NCI-H226 lung = test system: NCI-H226 lung
NCI-H23 lung = test system: NCI-H23 lung
NCI-H460 lung = test system: NCI-H460 lung
NCI-H522 lung = test system: NCI-H522 lung
NCI/ADR-RES ovarian = test system: NCI/ADR-RES ovarian
OVCAR-3 ovarian = test system: OVCAR-3 ovarian
OVCAR-4 ovarian = test system: OVCAR-4 ovarian
OVCAR-5 ovarian = test system: OVCAR-5 ovarian
OVCAR-8 ovarian = test system: OVCAR-8 ovarian
PC-3 prostate = test system: PC-3 prostate
RPMI-8226 leukemia = test system: RPMI-8226 leukemia
RXF 393 renal = test system: RXF 393 renal
SF-268 CNS = test system: SF-268 CNS
SF-295 CNS = test system: SF-295 CNS
SF-539 CNS = test system: SF-539 CNS
SK-MEL-2 melanoma = test system: SK-MEL-2 melanoma
SK-MEL-28 melanoma = test system: SK-MEL-28 melanoma
SK-MEL-5 melanoma = test system: SK-MEL-5 melanoma
SK-OV-3 ovarian = test system: SK-OV-3 ovarian
SN12C renal = test system: SN12C renal
SNB-19 CNS = test system: SNB-19 CNS
SNB-75 CNS = test system: SNB-75 CNS
SR leukemia = test system: SR leukemia
SW-620 colon = test system: SW-620 colon
T-47D breast = test system: T-47D breast
TK-10 renal = test system: TK-10 renal
U251 CNS = test system: U251 CNS
UACC-257 melanoma = test system: UACC-257 melanoma
UACC-62 melanoma = test system: UACC-62 melanoma
UO-31 renal = test system: UO-31 renal

`CC(C)Oc1c(N(Cc2ccccc2)c2ccccc2C2SCCCS2)c(=O)c1=O` was tested, and the TGI (786-0 renal) was > 100 µM, the TGI (A498 renal) was > 85.1 µM and the TGI (A549 NSCLC) was > 100 µM. The TGI (ACHN renal) was > 100 µM, the TGI (BT-549 breast) was > 100 µM and the TGI (CAKI-1 renal) was > 100 µM. The TGI (CCRF-CEM leukemia) was > 100 µM, the TGI (COLO 205 colon) was 21.5 µM and the TGI (DU-145 prostate) was > 100 µM. For the same compound, the TGI (EKVX NSCLC) was > 100 µM, the TGI (HCC-2998 colon) was 18.5 µM and the TGI (HCT-116 colon) was 59.3 µM. For the same compound, the TGI (HCT-15 colon) was > 56.5 µM, the TGI (HL-60(TB) leukemia) was > 100 µM and the TGI (HOP-62 NSCLC) was > 100 µM. The TGI (HOP-92 NSCLC) was > 83.3 µM, the TGI (HS 578T breast) was 32.6 µM and the TGI (HT29 colon) was 6.78 µM. The TGI (IGROV1 ovarian) was > 32.8 µM, the TGI (K-562 leukemia) was > 100 µM and the TGI (KM12 colon) was 35.9 µM. The TGI (LOX IMVI melanoma) was > 100 µM, the TGI (M14 melanoma) was 19.3 µM and the TGI (MALME-3M melanoma) was > 100 µM. The TGI (MCF7 breast) was > 100 µM, the TGI (MDA-MB-231 breast) was > 56 µM and the TGI (MDA-MB-435) was 10.3 µM. For the same compound, the TGI (MDA-N) was > 30.7 µM, the TGI (MOLT-4 leukemia) was > 100 µM and the TGI (NCI-H226 lung) was > 28.2 µM. For the same compound, the TGI (NCI-H23 lung) was > 47.5 µM, the TGI (NCI-H460 lung) was > 60.8 µM and the TGI (NCI-H522 lung) was 4.87 µM. The TGI (NCI/ADR-RES ovarian) was 4.7 µM, the TGI (OVCAR-3 ovarian) was 7.07 µM and the TGI (OVCAR-4 ovarian) was > 100 µM. For the same compound, the TGI (OVCAR-5 ovarian) was > 100 µM, the TGI (OVCAR-8 ovarian) was > 60.7 µM and the TGI (PC-3 prostate) was 35.7 µM. For the same compound, the TGI (RPMI-8226 leukemia) was > 100 µM, the TGI (RXF 393 renal) was > 100 µM and the TGI (SF-268 CNS) was > 100 µM. It also gave a TGI (SF-295 CNS) of 5.67 µM, a TGI (SF-539 CNS) of 8 µM and a TGI (SK-MEL-2 melanoma) of 20.1 µM. For the same compound, the TGI (SK-MEL-28 melanoma) was > 100 µM, the TGI (SK-MEL-5 melanoma) was > 100 µM and the TGI (SK-OV-3 ovarian) was > 73.4 µM. For the same compound, the TGI (SN12C renal) was > 100 µM, the TGI (SNB-19 CNS) was > 100 µM and the TGI (SNB-75 CNS) was 7.22 µM. The TGI (SR leukemia) was > 100 µM, the TGI (SW-620 colon) was 8.2 µM and the TGI (T-47D breast) was > 100 µM. The TGI (TK-10 renal) was > 100 µM, the TGI (U251 CNS) was > 100 µM and the TGI (UACC-257 melanoma) was > 100 µM. For the same compound, the TGI (UACC-62 melanoma) was > 100 µM and the TGI (UO-31 renal) was > 100 µM.
